Laboratory results as given in PubChem BioAssay (NCI).
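Cultured in 96-well plates, cells were exposed to test compound for 48 hours across five concentrations. GI50: concentration for 50% inhibition of growth. Definition used: TGI = concentration required for complete inhibition of growth.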

How the values were obtained:
Assay in all cases: inhibition of tumour cell growth, NCI panel, 48 h
A549 NSCLC = test system: A549 NSCLC
CAKI-1 renal = test system: CAKI-1 renal
COLO 205 colon = test system: COLO 205 colon
HT29 colon = test system: HT29 colon
K-562 leukemia = test system: K-562 leukemia
MCF7 breast = test system: MCF7 breast
NCI/ADR-RES ovarian = test system: NCI/ADR-RES ovarian
OVCAR-8 ovarian = test system: OVCAR-8 ovarian
SF-295 CNS = test system: SF-295 CNS
SF-539 CNS = test system: SF-539 CNS
SNB-19 CNS = test system: SNB-19 CNS
SR leukemia = test system: SR leukemia
SW-620 colon = test system: SW-620 colon
U251 CNS = test system: U251 CNS
UACC-62 melanoma = test system: UACC-62 melanoma
UO-31 renal = test system: UO-31 renal
CCRF-CEM leukemia = test system: CCRF-CEM leukemia
HCC-2998 colon = test system: HCC-2998 colon

Row | SMILES | TGI (A549 NSCLC) | TGI (CAKI-1 renal) | TGI (COLO 205 colon) | TGI (HT29 colon) | TGI (K-562 leukemia) | TGI (MCF7 breast) | TGI (NCI/ADR-RES ovarian) | TGI (OVCAR-8 ovarian) | TGI (SF-295 CNS) | TGI (SF-539 CNS) | TGI (SNB-19 CNS) | TGI (SR leukemia) | TGI (SW-620 colon) | TGI (U251 CNS) | TGI (UACC-62 melanoma) | TGI (UO-31 renal) | TGI (CCRF-CEM leukemia) | TGI (HCC-2998 colon) | GI50 (U251 CNS)
1 | Oc1cn(-c2ccc(Cl)cc2)nc1-c1n[nH]c(=S)n1-c1ccccc1 | 35.6 µM | 35.3 µM | 54.9 µM | 44 µM | > 100 µM | 21.9 µM | 14.1 µM | 34.6 µM | 19.8 µM | 23.1 µM | > 100 µM | 94 µM | 20.4 µM | 30.4 µM | 28 µM | 62.7 µM | – | – | –
2 | COc1ccc2c(c1)CCCN2CCCCCCCCCCN(CCC(C)C)CCC(C)C | 26.2 µM | 28.9 µM | 26.6 µM | 18 µM | 40 µM | – | – | – | 27.4 µM | 11.1 µM | 27.7 µM | – | 26.2 µM | 26.6 µM | 27.1 µM | 10.2 µM | 32.9 µM | 19.2 µM | –
3 | Nc1n[nH]c(=O)c2c1c(I)cn2C1OC(CO)C(O)C1O (stereo not drawn) | > 100 µM | – | 7.81 µM | 67.8 µM | > 100 µM | – | – | 1.44 µM | 9.74 µM | – | > 100 µM | 1.33 µM | > 100 µM | 4.19 µM | 13.3 µM | 5.86 µM | 4.12 µM | 7.45 µM | –
4 | CN(C)CCNC(=O)c1cccc2ccc(-c3ccc(F)cc3)nc12 | 17.9 µM | 15.3 µM | 10.9 µM | 17 µM | 12 µM | 20.5 µM | 18.4 µM | 15.8 µM | 19.7 µM | 14.9 µM | 33.7 µM | – | 21 µM | 22.3 µM | 13.4 µM | 11.4 µM | 15.8 µM | 19.3 µM | –
5 | COc1ccc(-c2nc3ncccn3c2-c2ccc(SC)cc2)cc1 | 9.88 µM | 4.96 µM | 3.31 µM | 28.1 µM | > 100 µM | – | 5.24 µM | > 100 µM | 3 µM | 5.85 µM | 5.94 µM | 10.6 µM | > 100 µM | 29 µM | 13 µM | 66.6 µM | > 100 µM | – | –
6 | Cc1cc(/N=C/c2ccc(F)cc2)n(-c2ccccc2)n1 | > 100 µM | > 100 µM | > 100 µM | > 100 µM | > 100 µM | > 100 µM | > 100 µM | > 100 µM | > 100 µM | > 100 µM | > 100 µM | > 100 µM | > 100 µM | > 100 µM | > 100 µM | > 100 µM | > 100 µM | – | –
7 | O=C(Nc1ccc([N+](=O)[O-])cc1[N+](=O)[O-])C(=O)C(C(=O)c1ccc2ccccc2c1)C1OC(=O)c2ccccc21 (stereo not drawn) | 61.7 µM | 54 µM | 35 µM | 36.4 µM | 38.8 µM | – | – | 21.6 µM | 55.1 µM | 18.6 µM | 33 µM | 16.7 µM | 30.9 µM | 16.9 µM | 30.2 µM | 27.7 µM | 32.4 µM | 25 µM | –
8 | Cc1cc2c(cc1C(=O)c1ccc(N)cc1)OCO2 | > 100 µM | 66.4 µM | 41.5 µM | 61.3 µM | > 100 µM | 53.8 µM | 87.7 µM | > 100 µM | 86 µM | 79.7 µM | > 100 µM | > 100 µM | > 100 µM | > 100 µM | > 100 µM | > 100 µM | > 100 µM | – | –
9 | COc1cc(/C=C/C(=O)Oc2ccc(NC(C)=O)cc2)ccc1C(=O)O/C=C/c1ccccc1 | > 100 µM | – | > 100 µM | > 100 µM | > 31.6 µM | > 100 µM | > 100 µM | > 100 µM | > 100 µM | > 100 µM | > 100 µM | – | > 100 µM | > 100 µM | > 100 µM | > 100 µM | > 100 µM | > 100 µM | –
10 | CN(C)CCCn1cnc2cc(Cl)c(Cl)cc21 | > 100 µM | > 100 µM | > 100 µM | > 100 µM | > 100 µM | > 100 µM | > 100 µM | > 100 µM | > 100 µM | – | > 100 µM | > 100 µM | > 100 µM | > 100 µM | 82.2 µM | > 100 µM | > 100 µM | 40.6 µM | –
11 | NCCc1cc(O)c(O)cc1O | > 100 µM | 61.5 µM | > 72.9 µM | 67.6 µM | > 80.5 µM | 44.4 µM | > 86.7 µM | > 53.6 µM | 49.3 µM | 44.3 µM | > 100 µM | 31 µM | 40 µM | 28.5 µM | 74.9 µM | 51.2 µM | 23.6 µM | > 100 µM | 14 µM
12 | CCOC(=O)c1c2c(n(Cc3ccccc3)c1C)C(=O)C(=O)c1ccccc1-2 | 1.35 µM | 0.984 µM | 1.69 µM | – | > 100 µM | – | > 100 µM | 1.07 µM | 0.984 µM | 0.521 µM | – | – | 1.15 µM | 2.03 µM | 1.65 µM | > 100 µM | – | 1.17 µM | –
13 | CCCOC(=O)CNC(=O)OC(C)(C)C | > 100 µM | > 100 µM | > 100 µM | > 100 µM | > 100 µM | – | – | > 100 µM | > 100 µM | > 100 µM | > 100 µM | > 100 µM | > 100 µM | > 100 µM | > 100 µM | > 100 µM | > 100 µM | > 100 µM | –
14 | N=C1C(=N)c2ccccc2-c2ccccc21.N=C1C(=N)c2ccccc2-c2ccccc21.N=C1C(=N)c2ccccc2-c2ccccc21.[Cl-].[Ru+2] | > 27.9 µM | – | 6.87 µM | > 31.6 µM | 4.68 µM | – | – | 3.14 µM | 3.23 µM | 3.27 µM | 6.35 µM | 5.57 µM | 3.74 µM | 3.08 µM | 3.5 µM | 4.71 µM | – | > 31.6 µM | –
15 | O=P1(c2ccccc2)Nc2ccccc2SSc2ccccc2N1 | 46.1 µM | 32.4 µM | 42.4 µM | 37.1 µM | 51.4 µM | 37.5 µM | 42.3 µM | 37.2 µM | 30.3 µM | 34.3 µM | 30.3 µM | – | 33.7 µM | 30.4 µM | 29.8 µM | 27.2 µM | 62.8 µM | 37.6 µM | –
16 | Cc1cccc2c1Sc1ccccc1C2NC(=O)CCN(C)C (stereo not drawn) | > 100 µM | – | > 100 µM | > 100 µM | > 100 µM | – | – | > 100 µM | – | > 100 µM | > 100 µM | > 100 µM | > 100 µM | > 100 µM | > 100 µM | > 100 µM | > 100 µM | > 100 µM | –
17 | CCc1nc(N)nc(N)c1-c1ccc([N+](C)(C)C)cc1 | > 100 µM | > 100 µM | > 100 µM | > 100 µM | > 100 µM | > 100 µM | > 100 µM | > 100 µM | > 100 µM | > 100 µM | > 100 µM | > 100 µM | > 100 µM | > 100 µM | > 100 µM | > 100 µM | > 100 µM | > 100 µM | –
18 | COc1ccc(/C(Cl)=C(\C=O)c2ccc(OC)cc2)cc1 | > 100 µM | > 100 µM | – | > 100 µM | > 100 µM | – | – | > 100 µM | > 100 µM | > 100 µM | > 100 µM | 78.8 µM | > 100 µM | > 100 µM | > 100 µM | > 100 µM | > 100 µM | > 100 µM | –
19 | COc1ccc(C2=C3SC=c4ccccc4=C3ON=C2c2ccccc2)cc1 | > 100 µM | > 100 µM | > 100 µM | > 100 µM | > 100 µM | > 100 µM | > 100 µM | > 100 µM | > 100 µM | > 100 µM | > 100 µM | > 100 µM | > 100 µM | > 100 µM | > 100 µM | > 100 µM | > 100 µM | > 100 µM | –
20 | CC(=O)NNc1nc(-c2ccc([N+](=O)[O-])cc2)c(C#N)c(=O)n1C | > 100 µM | > 100 µM | > 100 µM | > 100 µM | 89.5 µM | 97.3 µM | > 100 µM | 89.3 µM | > 100 µM | 35.1 µM | > 100 µM | > 100 µM | > 100 µM | 50 µM | > 100 µM | > 100 µM | > 100 µM | – | –
21 | CN(C)C(=O)/C=C/c1c[nH]c(=O)[nH]c1=O | > 500 µM | > 500 µM | > 500 µM | > 500 µM | > 500 µM | > 500 µM | > 500 µM | > 500 µM | > 500 µM | > 500 µM | > 500 µM | – | > 500 µM | > 500 µM | > 500 µM | > 500 µM | > 500 µM | > 500 µM | –
